These results are taken from patent publication US20010047099A1, “4-aminopicolinates and their use as herbicides” (priority 2000, published 2001).

Data set [1] relates to Canada thistle (Cirsium arvense). Nature of the data set: Range & Pasture Crop Testing (postemergence track sprayer). The data set is classed as in vivo. Conditions: for GR80 CIRAR: Table 10, clover pasture, postemergence. In a few lines:
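Postemergence track-sprayer application at 187 L/ha, compounds formulated in 97:3 acetone:DMSO with 0.25% X-77, five rates (X serially diluted to 1/16×). Visual percent control (0–100 scale, burn down) rated 3 weeks after treatment; GR50/GR80 derived by probit analysis.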

Data set [2] deals with pigweed (Amaranthus retroflexus). Description: Postemergence herbicidal activity. Format: in vivo. The following applies: Amaranthus retroflexus, post-emergence, 336 h, Table 2, rate 125 ppm, after 2 weeks, read-out: POSTMERGENCE HERBICIDAL ACTIVITY % CONTROL AMARE. In a few lines: (§1)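 Foliar spray at 1st–2nd true leaf; 1 ppm ≈ 1 g/Ha. Carrier: acetone/water/IPA/DMSO plus crop oil concentrate and Triton X-155. Greenhouse, sub-irrigated. Visual rating vs untreated at 2 wk, 0 = no injury, 100 = complete kill.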

In data set [3] the test system is blackgrass (Alopecurus myosuroides). Description: Postemergence herbicidal activity. The data set is classed as in vivo. The following applies: post-emergence, 336 h. In a few lines:
as §1

In data set [4] the test system is barnyardgrass (Echinochloa crus-galli). Description: Postemergence herbicidal activity. The data set is classed as in vivo. The following applies: for inhibition at 125 ppm: Echinochloa crus-galli, post-emergence, 336 h, Table 2, rate 125 ppm, after 2 weeks, read-out: POSTMERGENCE HERBICIDAL ACTIVITY % CONTROL ECHCG; for post emergent evaluation - % control ECHCG: Table 3, weeds in rice, rate 250 ppm. In a few lines:
as §1

In data set [5] the test system is velvetleaf (Abutillon theophrasti). Description: Postemergence herbicidal activity. The data set is classed as in vivo. The following applies: Abutilon theophrasti, post-emergence, 336 h, Table 2, rate 125 ppm, after 2 weeks, read-out: POSTMERGENCE HERBICIDAL ACTIVITY % CONTROL ABUTH. In a few lines:
as §1

Data set [6] relates to giant foxtail (Setaria faberi). Nature of the data set: Postemergence herbicidal activity. The data set is classed as in vivo. The following applies: post-emergence, 336 h. In a few lines: as §1
Data set [7] deals with wild oats (Avena fatua). Description: Postemergence herbicidal activity. The data set is classed as in vivo. Conditions: post-emergence, 336 h. In short, it runs like this: as §1
The subject of data set [8] is Rox orange sorghum (sorghum bicolor). Nature of the data set: Postemergence herbicidal activity. Format: in vivo. Conditions: post-emergence, 336 h. In a few lines: as §1
The subject of data set [9] is viola (Viola tricolor). Description: Postemergence herbicidal activity. The data set is classed as in vivo. The following applies: post-emergence, 336 h. In a few lines:
as §1

The test system of data set [10] is lambsquarters (Chenopodium album). Description: Postemergence herbicidal activity. Format: in vivo. The following applies: for inhibition at 125 ppm: Chenopodium album, post-emergence, 336 h, Table 2, rate 125 ppm, after 2 weeks, read-out: POSTMERGENCE HERBICIDAL ACTIVITY % CONTROL CHEAL. In a few lines:
as §1

Data set [11] deals with crabgrass (Digitaria sanguinalis). Nature of the data set: Postemergence herbicidal activity. Format: in vivo. The following applies: post-emergence, 336 h. In a few lines: as §1
The mark [12] stands for this setting: Table 2, rate 125 ppm, after 2 weeks, read-out: POSTMERGENCE HERBICIDAL ACTIVITY % CONTROL ALOMY.
[13] abbreviates: Table 2, rate 125 ppm, after 2 weeks, read-out: POSTMERGENCE HERBICIDAL ACTIVITY % CONTROL SETFA.
Where [14] appears, read: Table 2, rate 125 ppm, after 2 weeks, read-out: POSTMERGENCE HERBICIDAL ACTIVITY % CONTROL AVEFA.
Setting [15] is: Table 2, rate 125 ppm, after 2 weeks, read-out: POSTMERGENCE HERBICIDAL ACTIVITY % CONTROL SORBI.
Where [16] appears, read: Table 2, rate 125 ppm, after 2 weeks, read-out: POSTMERGENCE HERBICIDAL ACTIVITY % CONTROL VIOTR.
[17] abbreviates: Table 2, rate 125 ppm, after 2 weeks, read-out: POSTMERGENCE HERBICIDAL ACTIVITY % CONTROL DIGSA.

The structures appear in SMILES notation. Like-named read-outs stand apart in the source and are kept apart here. Where only a bound is given, the exact number is not on record here.

Regarding `Nc1cc(Cl)nc(C(=O)O)c1Cl` [Compound 1, 4-Amino-3,6-dichloropyridine-2-carboxylic acid], the “Post-emergent GR80 CIRAR” value in data set [1] (Table 8, salts of Compound 1, 3 week evaluation) is reported as 47 g/Ha. Besides, the inhibition at 125 ppm in [2] (read-out: PO[…] % CONTROL AMARE) was determined as 95%; in [3] (read-out: PO[…] % CONTROL ALOMY, Table 2, rate 125 ppm, after 2 weeks, read-out: POSTMERGENCE HERBICIDAL ACTIVITY % CONTROL ALOMY) it was 50%; in data set [4] (read-out: PO[…] % CONTROL ECHCG) it was 45%; in data set [5] (read-out: PO[…] % CONTROL ABUTH) it was 70%; in data set [6] (read-out: PO[…] % CONTROL SETFA, Table 2, rate 125 ppm, after 2 weeks, read-out: POSTMERGENCE HERBICIDAL ACTIVITY % CONTROL SETFA), 75%; in data set [7] (read-out: PO[…] % CONTROL AVEFA, Table 2, rate 125 ppm, after 2 weeks, read-out: POSTMERGENCE HERBICIDAL ACTIVITY % CONTROL AVEFA), 50%. Also, the inhibition at 125 ppm in [8] (read-out: PO[…] % CONTROL SORBI, Table 2, rate 125 ppm, after 2 weeks, read-out: POSTMERGENCE HERBICIDAL ACTIVITY % CONTROL SORBI) worked out at 50%; in [9] (read-out: PO[…] % CONTROL VIOTR, Table 2, rate 125 ppm, after 2 weeks, read-out: POSTMERGENCE HERBICIDAL ACTIVITY % CONTROL VIOTR), 80%; in [10] (read-out: PO[…] % CONTROL CHEAL) it was 100%; in data set [11] (read-out: PO[…] % CONTROL DIGSA, Table 2, rate 125 ppm, after 2 weeks, read-out: POSTMERGENCE HERBICIDAL ACTIVITY % CONTROL DIGSA), 60%. Moreover, the “post emergent evaluation - % control ECHCG” value in [4] was determined as 75%.

Broadly, the melting point is the temperature, or range, at which the solid turns liquid. In turn, `COC(=O)c1nc(Cl)cc(N)c1Cl` [Compound 3, methyl 4-amino-3,6-dichloropyridine-2-carboxylate] registered a melting point of 134 to 135 °C. Also, the “Post-emergent Evaluation - % control CIRAR” value in [1] (Table 9, rate 70 g/Ha, 3 weeks after treatment) is recorded as 90%. In addition, in data set [1], the “GR80 CIRAR” value is <17.5 g/ha.

For `CCOC(=O)c1nc(Cl)cc(N)c1Cl` [Compound 4, ethyl 4-amino-3,6-dichloropyridine-2-carboxylate], the melting point lay within 98 to 99 °C. Also, the “GR80 CIRAR” value in data set [1] was <17.5 g/ha. In addition, in data set [2], the inhibition at 125 ppm stood at 100%. Further, the inhibition at 125 ppm in [3] (setting [12]) is 40%. In addition, in data set [4], the inhibition at 125 ppm was found to be 50%. Also, the inhibition at 125 ppm in [5] is 70%. In addition, the inhibition at 125 ppm in [6] (setting [13]) came out at 75%. For the same compound, the inhibition at 125 ppm in data set [7] (setting [14]) worked out at 40%. Further, the inhibition at 125 ppm in [8] (setting [15]) was determined as 40%. For the same compound, the inhibition at 125 ppm in data set [9] (setting [16]) was determined as 70%. In [10], the inhibition at 125 ppm turned out to be 100%. For the same compound, the inhibition at 125 ppm in data set [11] (setting [17]) is 70%.

For the compound `Nc1cc(Br)nc(C(=O)O)c1Cl` [Compound 14, 4-Amino-6-bromo-3-chloropyridine-2-carboxylic acid], the melting point fell in the range of 182 to 183 °C. For the same compound, in [2], the inhibition at 125 ppm came to 90%. Moreover, the inhibition at 125 ppm in data set [3] (setting [12]) is 50%. Also, in data set [4], the inhibition at 125 ppm was 65% and the “post emergent evaluation - % control ECHCG” value came to 65%. For the same compound, in [5], the inhibition at 125 ppm is 85%. The inhibition at 125 ppm in [6] (setting [13]) turned out to be 65%. Further, the inhibition at 125 ppm in data set [7] (setting [14]) was 40%. The inhibition at 125 ppm in data set [8] (setting [15]) was 60%. In addition, in data set [9] (setting [16]), the inhibition at 125 ppm was 75%. Moreover, the inhibition at 125 ppm in [10] worked out at 95%. Further, in [10] (Table 5, rate 250 ppm), the “Post-emergent Evaluation - % control CHEAL” value is 70%. For the same compound, the inhibition at 125 ppm in data set [11] (setting [17]) was found to be 65%.

As for `Nc1c(F)c(Cl)nc(C(=O)O)c1Cl` [Compound 19, 4-Amino-3,6-dichloro-5-fluoropyridine-2-carboxylic acid], the melting point is 214 °C (dec.). In addition, the inhibition at 125 ppm in [2] came out at 60%. In addition, the inhibition at 125 ppm in data set [3] (setting [12]) was 20%. For the same compound, the inhibition at 125 ppm in data set [4] amounted to 10%. The inhibition at 125 ppm in data set [5] is 50%. In [6] (setting [13]), the inhibition at 125 ppm was found to be 20%. For the same compound, the inhibition at 125 ppm in [7] (setting [14]) was determined as 20%. Besides, the inhibition at 125 ppm in [8] (setting [15]) amounted to 10%. The inhibition at 125 ppm in data set [9] (setting [16]) was determined as 50%. The inhibition at 125 ppm in data set [10] stood at 95%. In data set [11] (setting [17]), the inhibition at 125 ppm was 30%.

The compound `COc1c(C(=O)O)nc(Br)c(Cl)c1N` [Compound 42, 4-Amino-6-bromo-5-chloro-3-methoxypyridine-2-carboxylic acid] registered a melting point of 154 to 156 °C.
